Source: patent US20240116863A1, “DIPHENYL THIOUREA AND DIPHENYL UREA DERIVATIVES AS INHIBITORS OF ENDOCYTOSIS” (priority 2022, published 2024)

Legend:
IAV WSN = assay type: cell-based, influenza A virus
SARS-CoV-2 D614G strain = assay type: cell-based

| SMILES | reduction in viral titre after tenth passage (IAV WSN) [log] | reduction of SARS-CoV-2 infection (SARS-CoV-2 D614G strain) | blocked SARS-CoV-2 infections (SARS-CoV-2 D614G strain) |
| --- | --- | --- | --- |
| O=C(Nc1cc(C(F)(F)F)cc(C(F)(F)F)c1)Nc1cc(C(F)(F)F)cc(C(F)(F)F)c1 [DPUD-1, 1,3-bis(3,5-bis(trifluoromethyl)phenyl)urea] | > 5 | greater than 99% | – |
| O=C(Nc1ccccc1)Nc1ccccc1 [DPU, 1,3-diphenylurea, reference compound] | – | – | did not show any inhibitory effect |
